# Data taken from paper PMC8964335 (Drug Design, Development and Therapy, 2022).
# “Also recorded” adds a separate entry of the source. Like-named read-outs stand apart in the source and are kept apart here.
# Key:
# [1] = no reference given; cited from earlier work
# [2] = tested on: breast cancer resistance protein (BCRP); conditions: cited from earlier work
# [3] = tested on: patients with hematological malignancies; experiment: Adverse effects during the DDI study; format: in vivo, human
# [4] = Voriconazole steady-state check from two adjacent trough concentrations; format: in vivo, human; conditions: first four patients, day 4, 200 mg per 12 h without loading dose
# patients undergoing HSCT = conditions: initial dose 5 mg twice daily; cited from earlier work
# [5] = presence vs absence of food; cited from earlier work
# [6] = tested on: patients receiving ruxolitinib; conditions: patients receiving ruxolitinib vs control regimen; cited from earlier work
# [7] = Ruxolitinib pharmacokinetics without and with co-administered voriconazole; format: in vivo, human
# SR-aGVHD patients = conditions: 10 mg ruxolitinib twice daily, cited from earlier work
# CYP3A4 = conditions: cited from earlier work
# [8] = coadministered with fluconazole vs ruxolitinib alone; cited from earlier work
# healthy people = conditions: cited from earlier work
# [9] = human; cited from earlier work
# CYP2C9 = conditions: cited from earlier work
# [10] = 10 mg once daily for 10 days; cited from earlier work
# [11] = after pre-treatment with voriconazole vs ruxolitinib alone
# [12] = ruxolitinib 5 mg co-administered with voriconazole
# [13] = with voriconazole vs ruxolitinib alone
compound,measurement,setting,value
C[C@@H](c1ncncc1F)[C@](O)(Cn1cncn1)c1ccc(F)cc1F [voriconazole],bioavailability,[1],96%
same,inhibition of BCRP,[2],does not inhibit
same,adverse effects,"[3]; voriconazole 200 mg per 12 h without loading dose, first four patients",no adverse effects were observed
same,difference between two trough concentrations (C12-C0)/C12×100%,[4],less than 15%
N#CC[C@H](C1CCCC1)n1cc(-c2ncnc3[nH]ccc23)cn1 [ruxolitinib],patients developing severe cytopenia,patients undergoing HSCT,60%
same,patients responding,patients undergoing HSCT,75%
same,AUCinf decreased by food,[5],6%
same,Cmax decreased by food,[5],24.3%
same,fungal infection,[6],11.5%
same,AUCinf increased by,[7]; [11],118.3%
same,AUClast increased by,[7]; [11],110.1%
same,Cmax increased by,[7]; [11],50.4%
same,T1/2 increased by,[7]; [11],81.3%
same,change in Tmax,[7]; [11],no significant change
same,CL/F % of ruxolitinib alone,[7]; [12],43.6%
same,Cmax % of ruxolitinib alone,[7]; [12],150.4%
same,CL/F,"[7]; ruxolitinib 5 mg single oral dose alone, 12 patients, mean ± SD",22.5 ± 6.4 L/h
same,AUClast increased to,[7]; [13],approximately 2.1 fold
same,T1/2 prolonged to,[7]; [13],1.81 fold
same,AUCinf increased to (range over patients),"[7]; with voriconazole vs ruxolitinib alone, range",1.44–3.35 fold
same,overall response on day 28,SR-aGVHD patients; SR-aGVHD,62%
same,"anemia, severe (grade ≥ 3) adverse event",SR-aGVHD patients,22%
same,"neutropenia, severe (grade ≥ 3) adverse event",SR-aGVHD patients,13%
same,"thrombocytopenia, severe (grade ≥ 3) adverse event",SR-aGVHD patients,27%
same,share of metabolism by CYP3A4,CYP3A4,76%
same,adverse effects,[3]; two single doses of 5 mg ruxolitinib,No observed adverse effects; also recorded: No adverse effect
same,AUCinf increased by,[8],232%
same,AUClast increased by,[8],234%
same,Cmax increased by,[8],47%
same,maximum tolerated dose (MTD),healthy people; once daily,100 mg
same,maximum tolerated dose (MTD),healthy people; twice daily,25 mg
same,unchanged parent molecules in urine and feces,[9],less than 1%
same,share of metabolism by CYP2C9,CYP2C9,19%
same,accumulation on repeated dosing,[10],no cumulative effect
CC[C@@H]([C@H](C)O)n1ncn(-c2ccc(N3CCN(c4ccc(OC[C@@H]5CO[C@@](Cn6cncn6)(c6ccc(F)cc6F)C5)cc4)CC3)cc2)c1=O [posaconazole],bioavailability,[1],83%
